Literature values in patent publication US20020010164A1, “Low oxygen content compositions of 1alpha, 25-dihydroxycholecalciferol” (priority 1999, published 2002).

Question: With `C=C1/C(=C\C=C2/CCCC3(C)C2CCC3C(C)CCCC(C)(C)O)CC(O)CC1O` (stereo not drawn) [1α, 25-dihydroxycholecalciferol] as the molecule, how does the “solubility in organic solvents” value (organic solvents) read?
Answer: soluble

Question: And the solubility in water (water)?
Answer: practically insoluble
